# Patent US10670605B2, “Cysteine reactive probes and uses thereof” (The Scripps Research Institute, priority 2015, dated 2020)
# Legend:
# Assay in all cases: Competitive isoTOP-ABPP in situ (fragment-treated cells)
# Format in all cases: cell-based
# [1] = biological target: cysteines in MDA-MB-231 and Ramos cells (Homo sapiens, UniProt P04406)
# [2] = biological target: cysteines in MDA-MB-231 and Ramos cells (Homo sapiens, UniProt P62888)
# [3] = biological target: T1, cysteines in MDA-MB-231 and Ramos cells (Homo sapiens, UniProt Q09161)
# T1 sequence (Q09161 1-790): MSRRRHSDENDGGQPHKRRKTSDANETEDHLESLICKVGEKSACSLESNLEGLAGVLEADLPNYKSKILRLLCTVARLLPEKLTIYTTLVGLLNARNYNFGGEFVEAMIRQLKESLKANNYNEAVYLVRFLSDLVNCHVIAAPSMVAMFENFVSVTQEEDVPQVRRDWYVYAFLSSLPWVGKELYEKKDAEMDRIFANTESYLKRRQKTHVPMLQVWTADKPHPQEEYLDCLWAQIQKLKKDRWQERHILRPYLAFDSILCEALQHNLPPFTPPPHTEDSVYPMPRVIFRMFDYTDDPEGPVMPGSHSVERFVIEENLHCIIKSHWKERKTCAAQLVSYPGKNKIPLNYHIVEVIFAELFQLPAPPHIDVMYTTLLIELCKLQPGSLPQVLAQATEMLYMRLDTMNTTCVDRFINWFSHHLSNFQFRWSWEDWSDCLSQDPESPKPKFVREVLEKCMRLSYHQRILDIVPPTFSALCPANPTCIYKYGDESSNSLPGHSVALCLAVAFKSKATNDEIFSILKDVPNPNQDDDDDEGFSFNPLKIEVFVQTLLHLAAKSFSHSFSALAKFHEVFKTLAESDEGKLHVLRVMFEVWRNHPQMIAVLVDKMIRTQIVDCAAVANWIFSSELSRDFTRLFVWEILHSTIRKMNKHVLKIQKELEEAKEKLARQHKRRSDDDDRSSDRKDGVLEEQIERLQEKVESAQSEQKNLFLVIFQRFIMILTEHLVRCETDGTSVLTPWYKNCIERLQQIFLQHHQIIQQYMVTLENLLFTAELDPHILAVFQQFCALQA
# [4] = biological target: T2, cysteines in MDA-MB-231 and Ramos cells (Homo sapiens, UniProt Q96S55)
# T2 sequence (Q96S55 1-665): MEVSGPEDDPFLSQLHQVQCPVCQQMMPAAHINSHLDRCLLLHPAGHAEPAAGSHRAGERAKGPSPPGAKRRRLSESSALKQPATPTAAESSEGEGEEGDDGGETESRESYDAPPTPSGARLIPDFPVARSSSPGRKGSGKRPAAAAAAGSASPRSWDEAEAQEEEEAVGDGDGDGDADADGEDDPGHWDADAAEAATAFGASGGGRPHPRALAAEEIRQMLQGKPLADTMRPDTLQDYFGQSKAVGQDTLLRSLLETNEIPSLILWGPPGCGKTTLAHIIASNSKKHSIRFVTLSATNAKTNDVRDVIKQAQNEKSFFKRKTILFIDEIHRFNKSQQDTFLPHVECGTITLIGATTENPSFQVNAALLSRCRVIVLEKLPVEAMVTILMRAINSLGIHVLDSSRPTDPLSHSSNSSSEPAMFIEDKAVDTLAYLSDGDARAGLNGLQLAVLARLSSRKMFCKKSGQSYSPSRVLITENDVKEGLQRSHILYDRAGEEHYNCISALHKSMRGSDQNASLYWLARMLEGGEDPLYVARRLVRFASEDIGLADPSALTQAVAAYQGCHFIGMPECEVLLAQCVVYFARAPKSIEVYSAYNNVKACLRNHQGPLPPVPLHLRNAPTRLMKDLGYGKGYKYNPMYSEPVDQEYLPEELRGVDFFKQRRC
# [5] = biological target: T3, cysteines in MDA-MB-231 and Ramos cells (Homo sapiens, UniProt Q29RF7)
# T3 sequence (Q29RF7 1-1337): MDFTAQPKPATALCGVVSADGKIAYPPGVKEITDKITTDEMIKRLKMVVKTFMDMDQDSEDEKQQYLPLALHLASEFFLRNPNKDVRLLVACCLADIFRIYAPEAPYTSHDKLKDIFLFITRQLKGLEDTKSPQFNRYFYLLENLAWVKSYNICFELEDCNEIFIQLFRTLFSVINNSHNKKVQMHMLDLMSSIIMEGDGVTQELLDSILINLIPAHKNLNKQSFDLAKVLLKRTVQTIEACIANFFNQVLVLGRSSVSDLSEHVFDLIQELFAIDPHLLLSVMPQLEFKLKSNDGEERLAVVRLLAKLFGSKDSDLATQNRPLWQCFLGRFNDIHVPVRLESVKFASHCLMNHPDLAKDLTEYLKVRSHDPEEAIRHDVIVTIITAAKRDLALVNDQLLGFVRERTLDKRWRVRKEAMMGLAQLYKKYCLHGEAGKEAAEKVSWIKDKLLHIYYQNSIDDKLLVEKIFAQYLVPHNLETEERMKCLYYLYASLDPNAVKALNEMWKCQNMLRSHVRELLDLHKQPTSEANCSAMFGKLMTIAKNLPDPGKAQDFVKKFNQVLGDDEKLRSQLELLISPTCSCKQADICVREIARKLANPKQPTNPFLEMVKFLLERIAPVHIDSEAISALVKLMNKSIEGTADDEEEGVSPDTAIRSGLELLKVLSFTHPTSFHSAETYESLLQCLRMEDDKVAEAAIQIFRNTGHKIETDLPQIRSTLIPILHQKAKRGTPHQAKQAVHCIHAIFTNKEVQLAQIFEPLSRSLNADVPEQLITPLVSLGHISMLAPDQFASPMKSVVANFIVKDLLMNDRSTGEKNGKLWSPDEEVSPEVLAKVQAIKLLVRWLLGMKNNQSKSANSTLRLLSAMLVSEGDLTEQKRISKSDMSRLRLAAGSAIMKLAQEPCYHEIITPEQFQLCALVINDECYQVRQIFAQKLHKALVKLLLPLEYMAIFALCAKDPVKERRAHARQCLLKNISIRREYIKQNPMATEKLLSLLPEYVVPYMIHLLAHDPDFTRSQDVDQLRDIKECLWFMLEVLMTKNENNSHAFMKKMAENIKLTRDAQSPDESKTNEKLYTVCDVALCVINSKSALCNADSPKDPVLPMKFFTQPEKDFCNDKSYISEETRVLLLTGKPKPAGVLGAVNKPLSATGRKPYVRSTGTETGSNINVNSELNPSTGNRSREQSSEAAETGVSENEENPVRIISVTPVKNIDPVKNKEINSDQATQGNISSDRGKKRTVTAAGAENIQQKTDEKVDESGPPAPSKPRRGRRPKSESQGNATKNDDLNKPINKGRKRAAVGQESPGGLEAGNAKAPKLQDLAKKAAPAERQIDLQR
# [6] = biological target: cysteines in MDA-MB-231 and Ramos cells (Homo sapiens, UniProt Q7Z2W4)
# Chain of cysteines in MDA-MB-231 and Ramos cells (Homo sapiens, UniProt Q7Z2W4) (Q7Z2W4 whole entry): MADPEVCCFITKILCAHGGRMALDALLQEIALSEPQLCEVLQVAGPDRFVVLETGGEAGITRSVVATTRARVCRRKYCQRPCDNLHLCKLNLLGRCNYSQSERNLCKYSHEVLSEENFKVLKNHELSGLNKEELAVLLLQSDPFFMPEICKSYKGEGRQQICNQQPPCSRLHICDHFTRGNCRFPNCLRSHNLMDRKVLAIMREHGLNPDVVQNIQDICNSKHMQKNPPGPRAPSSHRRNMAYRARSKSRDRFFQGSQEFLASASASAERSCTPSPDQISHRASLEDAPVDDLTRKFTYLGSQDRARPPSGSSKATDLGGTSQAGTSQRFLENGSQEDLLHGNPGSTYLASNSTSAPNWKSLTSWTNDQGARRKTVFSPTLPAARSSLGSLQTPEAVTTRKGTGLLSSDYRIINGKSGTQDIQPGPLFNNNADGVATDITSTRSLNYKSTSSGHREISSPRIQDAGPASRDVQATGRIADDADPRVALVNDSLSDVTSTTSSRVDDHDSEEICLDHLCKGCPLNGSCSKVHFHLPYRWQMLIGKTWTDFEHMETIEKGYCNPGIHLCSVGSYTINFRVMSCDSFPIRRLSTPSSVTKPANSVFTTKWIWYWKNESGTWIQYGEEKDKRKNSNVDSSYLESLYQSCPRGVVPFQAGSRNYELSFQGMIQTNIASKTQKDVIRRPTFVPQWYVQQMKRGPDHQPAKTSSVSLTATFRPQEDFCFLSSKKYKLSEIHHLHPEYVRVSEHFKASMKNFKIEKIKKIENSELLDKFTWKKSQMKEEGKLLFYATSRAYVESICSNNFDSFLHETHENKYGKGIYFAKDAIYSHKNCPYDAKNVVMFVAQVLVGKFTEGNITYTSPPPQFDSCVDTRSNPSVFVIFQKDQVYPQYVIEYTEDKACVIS
# Chain of cysteines in MDA-MB-231 and Ramos cells (Homo sapiens, UniProt P04406) (P04406 whole entry): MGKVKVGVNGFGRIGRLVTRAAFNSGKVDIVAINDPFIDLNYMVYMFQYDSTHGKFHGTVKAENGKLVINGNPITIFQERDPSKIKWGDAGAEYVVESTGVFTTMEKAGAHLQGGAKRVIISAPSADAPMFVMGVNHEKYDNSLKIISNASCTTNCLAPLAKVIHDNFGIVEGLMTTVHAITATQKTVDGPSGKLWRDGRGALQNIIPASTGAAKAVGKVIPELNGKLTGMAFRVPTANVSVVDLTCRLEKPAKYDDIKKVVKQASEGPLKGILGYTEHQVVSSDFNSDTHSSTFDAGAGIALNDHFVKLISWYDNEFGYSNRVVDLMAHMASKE
Compound,"isoTOP-ABPP ratio P04406_C152 ([1]; 200 μM, insitu, 231)","isoTOP-ABPP ratio P62888_C92 ([2]; 200 μM, insitu, 231)","isoTOP-ABPP ratio Q09161_C44 ([3]; 200 μM, insitu, 231)","isoTOP-ABPP ratio Q7Z2W4_C645 ([6]; 200 μM, insitu, 231)","isoTOP-ABPP ratio Q96S55_C272 ([4]; 200 μM, insitu, 231)",further results
COc1ccc2c(c1)CCCN2C(=O)CCl [compound 2],–,–,–,–,–,"isoTOP-ABPP reactivity P04406_C152 GAPDH ([1]; 200 μM, insitu, 231): 20.0; isoTOP-ABPP reactivity P62888_C92 RPL30 ([2]; 200 μM, insitu, 231): 1.0; isoTOP-ABPP reactivity Q09161_C44 NCBP1 ([3]; 200 μM, insitu, 231): 2.1; isoTOP-ABPP reactivity Q96S55_C272 WRNIP1 ([4]; 200 μM, insitu, 231): 2.2"
COc1ccc(C2CC(c3cccs3)=NN2C(=O)CCl)cc1 (stereo not shown) [compound 4],–,–,–,–,–,isoTOP-ABPP reactivity P04406_C152 GAPDH ([1]; 100 μM in situ 231): 1.6; isoTOP-ABPP reactivity P62888_C92 RPL30 ([2]; 100 μM in situ 231): 2.7; isoTOP-ABPP reactivity Q09161_C44 NCBP1 ([3]; 100 μM in situ 231): 1.8; isoTOP-ABPP reactivity Q29RF7_C242 PDS5A ([5]; 100 μM in situ 231): 3.0; isoTOP-ABPP reactivity Q29RF7_C532 PDS5A ([5]; 100 μM in situ 231): 20.0; isoTOP-ABPP reactivity Q7Z2W4_C645 ZC3HAV1 ([6]; 100 μM in situ 231): 4.4; isoTOP-ABPP reactivity Q96S55_C272 WRNIP1 ([4]; 100 μM in situ 231): 3.7
COc1cc2c(cc1OC)CN(C(=O)CCl)CC2 [compound 8],–,–,–,–,–,"isoTOP-ABPP reactivity P04406_C152 GAPDH ([1]; 200 μM, insitu, 231): 1.1; isoTOP-ABPP reactivity P62888_C92 RPL30 ([2]; 200 μM, insitu, 231): 1.5; isoTOP-ABPP reactivity Q09161_C44 NCBP1 ([3]; 200 μM, insitu, 231): 2.0; isoTOP-ABPP reactivity Q29RF7_C242 PDS5A ([5]; 200 μM, insitu, 231): 1.0; isoTOP-ABPP reactivity Q7Z2W4_C645 ZC3HAV1 ([6]; 200 μM, insitu, 231): 5.1; isoTOP-ABPP reactivity Q96S55_C272 WRNIP1 ([4]; 200 μM, insitu, 231): 1.2"
O=C(CCl)N1CCC(Cc2ccccc2)CC1 [compound 9],–,–,–,–,–,"isoTOP-ABPP reactivity P04406_C152 GAPDH ([1]; 200 μM, insitu, 231): 1.7; isoTOP-ABPP reactivity P62888_C92 RPL30 ([2]; 200 μM, insitu, 231): 1.3; isoTOP-ABPP reactivity Q7Z2W4_C645 ZC3HAV1 ([6]; 200 μM, insitu, 231): 3.0; isoTOP-ABPP reactivity Q96S55_C272 WRNIP1 ([4]; 200 μM, insitu, 231): 4.5"
O=C(CCl)N1CCN(S(=O)(=O)c2ccccc2F)CC1 [compound 10],1.0,1.3,12.4,3.8,1.2,"isoTOP-ABPP ratio P04406_C152 ([1]; 200 μM, insitu, ramos): 0.9; isoTOP-ABPP ratio P62888_C92 ([2]; 200 μM, insitu, ramos): 4.5; isoTOP-ABPP ratio, cysteine Q29RF7_C532 ([5]; 200 μM, insitu, 231): 20.0"
Cn1cc(S(=O)(=O)N2CCOCC2)cc1C(=O)NC(=O)CCl [compound 11],–,–,–,–,–,"isoTOP-ABPP ratio P04406_C152 ([1]; 100 μM in situ 231): 0.8; isoTOP-ABPP ratio P62888_C92 ([2]; 100 μM in situ 231): 0.8; isoTOP-ABPP ratio Q09161_C44 ([3]; 100 μM in situ 231): 1.1; isoTOP-ABPP ratio, cysteine Q29RF7_C242 ([5]; 100 μM in situ 231): 0.9; isoTOP-ABPP ratio Q7Z2W4_C645 ([6]; 100 μM in situ 231): 1.0"
O=C(CCl)NC(=O)NC12CC3CC(CC(C3)C1)C2 [compound 12],0.9,1.1,4.7,3.3,2.4,"isoTOP-ABPP ratio, cysteine Q29RF7_C242 ([5]; 200 μM, insitu, 231): 12.9"
O=C(CCl)NCCc1c[nH]c2ccccc12 [compound 13],0.9,0.8,1.0,1.3,0.7,"isoTOP-ABPP ratio P04406_C152 ([1]; 200 μM, insitu, ramos): 0.9; isoTOP-ABPP ratio P62888_C92 ([2]; 200 μM, insitu, ramos): 2.0; isoTOP-ABPP ratio, cysteine Q29RF7_C532 ([5]; 200 μM, insitu, ramos): 2.0; isoTOP-ABPP ratio Q7Z2W4_C645 ([6]; 200 μM, insitu, ramos): 0.9"
O=C(CCl)NC12CC3CC(CC(C3)C1)C2 [compound 21],1.3,0.9,1.3,0.9,1.3,"isoTOP-ABPP ratio, cysteine Q29RF7_C242 ([5]; 200 μM, insitu, 231): 0.9"
CC(C)CCOCCNC(=O)CCl [compound 27],0.5,0.6,0.8,0.8,0.9,"isoTOP-ABPP ratio Q29RF7_C242 ([5]; 200 μM, insitu, 231): 0.9"
COc1ccccc1OCCNC(=O)CCl [compound 28],0.8,0.9,–,–,0.5,"isoTOP-ABPP ratio Q29RF7_C242 ([5]; 200 μM, insitu, 231): 1.0"
O=C(CCl)N1CCN(CC(=O)N2CCOCC2)CC1 [compound 29],–,–,–,–,–,"isoTOP-ABPP ratio P04406_C152 ([1]; 200 μM, insitu, ramos): 1.2; isoTOP-ABPP ratio P62888_C92 ([2]; 200 μM, insitu, ramos): 2.0; isoTOP-ABPP ratio Q09161_C44 ([3]; 200 μM, insitu, ramos): 1.1; isoTOP-ABPP ratio Q7Z2W4_C645 ([6]; 200 μM, insitu, ramos): 1.6"
C=CC(=O)N(Cc1cccnc1)c1cc(C(F)(F)F)cc(C(F)(F)F)c1 [compound 31],0.8,–,0.6,–,–,"isoTOP-ABPP ratio P04406_C152 ([1]; 200 μM, insitu, ramos): 1.0; isoTOP-ABPP ratio Q29RF7_C532 ([5]; 200 μM, insitu, 231): 5.1; isoTOP-ABPP ratio Q29RF7_C532 ([5]; 200 μM, insitu, ramos): 8.1"
C=CC(=O)Nc1cc(F)c(N2CCN(C(=O)OC(C)(C)C)CC2)c(F)c1 [compound 38],0.9,3.2,1.2,0.9,1.3,"isoTOP-ABPP ratio Q29RF7_C242 ([5]; 200 μM, insitu, 231): 1.0"
Cc1ccc(C=C(C#N)C(=O)NCCN2CCOCC2)cc1 [compound 41],0.6,0.8,0.8,0.9,0.8,"isoTOP-ABPP ratio Q29RF7_C532 ([5]; 200 μM, insitu, 231): 0.8"
CC1CCc2ccccc2N1C(=O)CCl (stereo not shown) [compound 45],20.0,2.2,2.5,4.6,2.5,–
O=C(CCl)Nc1cccc2ncccc12 [compound 51],1.0,0.9,1.2,1.6,0.9,"isoTOP-ABPP ratio Q29RF7_C242 ([5]; 200 μM, insitu, 231): 1.8"
